Measurements: ChEMBL document CHEMBL1139649, “Hetaryl imidazoles: a novel dual inhibitors of VEGF receptors I and II” (Bioorg Med Chem Lett, 2006)
pIC50: −log10 of the molar value.

target: Receptor tyrosine-protein kinase erbB-2 (Homo sapiens) (UniProt P04626); experiment: […] against ErbB2 at 10 uM by HTRF method

| Activity | SMILES |
| --- | --- |
| < 30% | CC(C)c1ccc(Nc2nnc(-c3c(NCc4ccncc4)ncn3C)o2)cc1 |
| < 30% | Cn1cnc(NCc2ccc(F)c(F)c2)c1-c1nnc(Nc2ccc(Cl)cc2)o1 |
| < 30% | Cn1cnc(NCc2ccncc2)c1-c1nnc(Nc2ccc(OC(F)(F)Cl)cc2)o1 |

tested on: not listed separately; experiment: Solubility in water; type: physicochemical

| solubility | SMILES |
| --- | --- |
| > 5 mM | Cn1cnc(NCc2ccncc2)c1-c1nnc(Nc2ccc(OC(F)(F)Cl)cc2)o1 |

target: T1, Ephrin type-B receptor 4 (Homo sapiens) (UniProt P54760); experiment: Percent inhibition against EphB4 at 10 uM by HTRF method; set-up: scale not given: the % may be the effect or the level left
T1 sequence (whole entry): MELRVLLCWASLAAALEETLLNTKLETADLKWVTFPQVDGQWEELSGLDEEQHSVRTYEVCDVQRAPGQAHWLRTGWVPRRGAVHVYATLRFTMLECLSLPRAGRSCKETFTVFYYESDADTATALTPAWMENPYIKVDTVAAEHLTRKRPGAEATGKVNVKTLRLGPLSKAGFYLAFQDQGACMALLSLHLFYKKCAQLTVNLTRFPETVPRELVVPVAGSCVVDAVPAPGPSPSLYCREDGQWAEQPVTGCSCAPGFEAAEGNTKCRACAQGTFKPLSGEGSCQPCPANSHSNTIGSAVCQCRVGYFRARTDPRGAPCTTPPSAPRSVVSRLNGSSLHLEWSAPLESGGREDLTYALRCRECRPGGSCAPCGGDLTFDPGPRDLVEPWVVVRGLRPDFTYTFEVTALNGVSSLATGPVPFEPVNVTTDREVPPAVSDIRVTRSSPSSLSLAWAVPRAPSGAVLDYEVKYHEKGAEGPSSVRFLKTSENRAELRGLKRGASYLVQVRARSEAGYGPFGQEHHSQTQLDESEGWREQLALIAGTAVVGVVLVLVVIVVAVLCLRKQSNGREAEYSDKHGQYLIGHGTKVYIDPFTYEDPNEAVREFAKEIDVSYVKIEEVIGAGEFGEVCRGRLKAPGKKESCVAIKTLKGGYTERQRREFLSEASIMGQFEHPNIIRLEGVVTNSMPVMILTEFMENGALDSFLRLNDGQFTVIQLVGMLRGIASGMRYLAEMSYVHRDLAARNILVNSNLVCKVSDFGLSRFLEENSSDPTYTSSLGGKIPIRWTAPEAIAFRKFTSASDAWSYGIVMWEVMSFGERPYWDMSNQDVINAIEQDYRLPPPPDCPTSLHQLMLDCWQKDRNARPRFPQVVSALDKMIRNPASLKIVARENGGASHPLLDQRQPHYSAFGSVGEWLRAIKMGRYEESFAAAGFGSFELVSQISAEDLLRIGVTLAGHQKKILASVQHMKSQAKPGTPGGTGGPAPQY

| Activity | SMILES |
| --- | --- |
| < 30% | CC(C)c1ccc(Nc2nnc(-c3c(NCc4ccncc4)ncn3C)o2)cc1 |
| < 30% | Cn1cnc(NCc2ccc(F)c(F)c2)c1-c1nnc(Nc2ccc(Cl)cc2)o1 |
| < 30% | Cn1cnc(NCc2ccncc2)c1-c1nnc(Nc2ccc(OC(F)(F)Cl)cc2)o1 |

target: T2, Vascular endothelial growth factor receptor 2 (Homo sapiens, UniProt P35968); experiment: Inhibition of VEGFR2 in 293 adenovirus transfected kidney cells by cell-based ELISA assay
T2 sequence (P35968 whole entry): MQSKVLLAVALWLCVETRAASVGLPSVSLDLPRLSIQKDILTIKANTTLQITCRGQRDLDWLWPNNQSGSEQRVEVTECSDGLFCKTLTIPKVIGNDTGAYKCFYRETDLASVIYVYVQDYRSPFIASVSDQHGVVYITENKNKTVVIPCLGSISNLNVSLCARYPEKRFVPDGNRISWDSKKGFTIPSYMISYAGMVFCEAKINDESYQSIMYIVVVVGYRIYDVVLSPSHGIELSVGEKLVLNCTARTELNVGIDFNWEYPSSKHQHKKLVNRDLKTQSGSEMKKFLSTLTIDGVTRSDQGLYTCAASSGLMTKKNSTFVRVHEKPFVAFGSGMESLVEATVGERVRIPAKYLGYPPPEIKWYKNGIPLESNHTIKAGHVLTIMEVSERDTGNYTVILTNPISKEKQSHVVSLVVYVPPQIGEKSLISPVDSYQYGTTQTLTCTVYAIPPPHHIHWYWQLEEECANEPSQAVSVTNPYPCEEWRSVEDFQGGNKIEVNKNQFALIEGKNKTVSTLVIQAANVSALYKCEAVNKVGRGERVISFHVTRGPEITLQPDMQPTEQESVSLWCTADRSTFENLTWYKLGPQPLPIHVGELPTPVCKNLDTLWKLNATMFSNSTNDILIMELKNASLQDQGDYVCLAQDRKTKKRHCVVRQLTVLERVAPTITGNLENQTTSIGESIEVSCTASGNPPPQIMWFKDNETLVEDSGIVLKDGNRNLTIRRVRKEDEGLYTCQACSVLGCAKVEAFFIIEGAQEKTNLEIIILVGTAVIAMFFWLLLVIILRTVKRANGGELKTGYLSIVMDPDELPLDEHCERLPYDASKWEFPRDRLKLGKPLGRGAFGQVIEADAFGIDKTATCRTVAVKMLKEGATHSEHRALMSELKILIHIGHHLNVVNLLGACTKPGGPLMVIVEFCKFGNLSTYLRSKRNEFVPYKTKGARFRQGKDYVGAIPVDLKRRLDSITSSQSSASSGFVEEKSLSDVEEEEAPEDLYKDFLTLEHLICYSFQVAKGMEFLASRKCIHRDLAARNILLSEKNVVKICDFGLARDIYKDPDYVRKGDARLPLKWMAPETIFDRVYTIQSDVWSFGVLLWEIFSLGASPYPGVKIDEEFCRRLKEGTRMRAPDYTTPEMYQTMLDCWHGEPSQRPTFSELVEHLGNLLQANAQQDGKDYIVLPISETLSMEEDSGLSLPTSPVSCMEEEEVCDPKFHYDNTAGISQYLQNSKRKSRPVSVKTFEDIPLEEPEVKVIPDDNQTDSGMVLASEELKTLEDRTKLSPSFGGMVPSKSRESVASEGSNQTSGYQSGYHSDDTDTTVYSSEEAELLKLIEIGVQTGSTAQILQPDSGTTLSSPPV

| pIC50 | SMILES |
| --- | --- |
| 5.94 | CC(C)c1ccc(Nc2nnc(-c3c(NCc4ccncc4)ncn3C)o2)cc1 |
| 5.25 | Cn1cnc(NCc2ccc(F)c(F)c2)c1-c1nnc(Nc2ccc(Cl)cc2)o1 |
| 7.02 | Cn1cnc(NCc2ccncc2)c1-c1nnc(Nc2ccc(OC(F)(F)Cl)cc2)o1 |

target: RAC-alpha serine/threonine-protein kinase (Homo sapiens) (UniProt P31749); experiment: […] against PKB/Akt at 10 uM by HTRF method

| Activity | SMILES |
| --- | --- |
| < 30% | CC(C)c1ccc(Nc2nnc(-c3c(NCc4ccncc4)ncn3C)o2)cc1 |
| < 30% | Cn1cnc(NCc2ccc(F)c(F)c2)c1-c1nnc(Nc2ccc(Cl)cc2)o1 |
| < 30% | Cn1cnc(NCc2ccncc2)c1-c1nnc(Nc2ccc(OC(F)(F)Cl)cc2)o1 |

target: Vascular endothelial growth factor receptor 1 (Homo sapiens, UniProt P17948); experiment: Inhibition of VEGFR1 by enzymatic assay

| pIC50 | SMILES |
| --- | --- |
| 6.11 | CC(C)c1ccc(Nc2nnc(-c3c(NCc4ccncc4)ncn3C)o2)cc1 |
| 5.48 | Cn1cnc(NCc2ccc(F)c(F)c2)c1-c1nnc(Nc2ccc(Cl)cc2)o1 |
| 6.34 | Cn1cnc(NCc2ccncc2)c1-c1nnc(Nc2ccc(OC(F)(F)Cl)cc2)o1 |

target: Hepatocyte growth factor receptor (Homo sapiens) (UniProt P08581); experiment: Percent inhibition against c-Met at 10 uM by HTRF method; set-up: scale not given: the % may be the effect or the level left
Sequence (P08581 whole entry): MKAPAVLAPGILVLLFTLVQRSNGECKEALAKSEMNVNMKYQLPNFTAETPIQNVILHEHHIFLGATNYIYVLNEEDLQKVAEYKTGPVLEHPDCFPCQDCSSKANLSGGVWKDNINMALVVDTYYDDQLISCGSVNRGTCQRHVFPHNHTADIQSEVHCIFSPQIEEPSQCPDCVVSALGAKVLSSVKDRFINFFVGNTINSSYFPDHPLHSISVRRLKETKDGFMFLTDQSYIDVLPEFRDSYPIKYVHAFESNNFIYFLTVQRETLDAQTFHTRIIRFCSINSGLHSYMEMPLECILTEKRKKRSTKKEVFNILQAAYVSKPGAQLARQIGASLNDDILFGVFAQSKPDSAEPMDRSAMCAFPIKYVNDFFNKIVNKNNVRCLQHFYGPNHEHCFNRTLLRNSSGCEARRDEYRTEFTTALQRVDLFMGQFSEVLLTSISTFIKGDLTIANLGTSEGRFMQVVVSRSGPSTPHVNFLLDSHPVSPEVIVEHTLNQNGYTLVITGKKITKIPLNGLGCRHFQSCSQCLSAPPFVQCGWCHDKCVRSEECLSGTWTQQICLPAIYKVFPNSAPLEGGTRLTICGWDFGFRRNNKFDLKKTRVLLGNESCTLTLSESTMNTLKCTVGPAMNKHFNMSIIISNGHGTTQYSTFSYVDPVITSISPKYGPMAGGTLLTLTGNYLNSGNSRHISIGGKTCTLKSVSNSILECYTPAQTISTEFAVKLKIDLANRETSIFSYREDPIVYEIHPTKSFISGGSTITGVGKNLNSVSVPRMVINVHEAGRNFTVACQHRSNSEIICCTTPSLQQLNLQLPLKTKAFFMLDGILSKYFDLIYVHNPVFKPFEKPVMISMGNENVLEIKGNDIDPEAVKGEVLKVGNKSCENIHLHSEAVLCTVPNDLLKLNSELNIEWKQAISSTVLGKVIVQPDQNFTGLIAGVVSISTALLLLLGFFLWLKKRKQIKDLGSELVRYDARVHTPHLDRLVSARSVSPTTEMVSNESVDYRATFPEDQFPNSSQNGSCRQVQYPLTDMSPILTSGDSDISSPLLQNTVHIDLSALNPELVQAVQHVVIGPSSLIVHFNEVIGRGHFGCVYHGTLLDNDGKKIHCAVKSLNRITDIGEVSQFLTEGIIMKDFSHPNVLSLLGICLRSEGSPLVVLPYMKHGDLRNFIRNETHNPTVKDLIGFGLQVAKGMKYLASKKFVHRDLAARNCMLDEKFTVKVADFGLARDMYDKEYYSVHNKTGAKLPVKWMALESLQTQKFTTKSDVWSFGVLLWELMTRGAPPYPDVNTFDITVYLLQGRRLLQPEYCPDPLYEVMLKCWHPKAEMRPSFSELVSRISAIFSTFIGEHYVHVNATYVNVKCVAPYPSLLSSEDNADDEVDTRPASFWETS

| Activity | SMILES |
| --- | --- |
| < 30% | CC(C)c1ccc(Nc2nnc(-c3c(NCc4ccncc4)ncn3C)o2)cc1 |
| < 30% | Cn1cnc(NCc2ccc(F)c(F)c2)c1-c1nnc(Nc2ccc(Cl)cc2)o1 |
| < 30% | Cn1cnc(NCc2ccncc2)c1-c1nnc(Nc2ccc(OC(F)(F)Cl)cc2)o1 |

target: Epidermal growth factor receptor (Homo sapiens) (UniProt P00533); experiment: […] against ErbB1 at 10 uM by HTRF method
Sequence (P00533 whole entry): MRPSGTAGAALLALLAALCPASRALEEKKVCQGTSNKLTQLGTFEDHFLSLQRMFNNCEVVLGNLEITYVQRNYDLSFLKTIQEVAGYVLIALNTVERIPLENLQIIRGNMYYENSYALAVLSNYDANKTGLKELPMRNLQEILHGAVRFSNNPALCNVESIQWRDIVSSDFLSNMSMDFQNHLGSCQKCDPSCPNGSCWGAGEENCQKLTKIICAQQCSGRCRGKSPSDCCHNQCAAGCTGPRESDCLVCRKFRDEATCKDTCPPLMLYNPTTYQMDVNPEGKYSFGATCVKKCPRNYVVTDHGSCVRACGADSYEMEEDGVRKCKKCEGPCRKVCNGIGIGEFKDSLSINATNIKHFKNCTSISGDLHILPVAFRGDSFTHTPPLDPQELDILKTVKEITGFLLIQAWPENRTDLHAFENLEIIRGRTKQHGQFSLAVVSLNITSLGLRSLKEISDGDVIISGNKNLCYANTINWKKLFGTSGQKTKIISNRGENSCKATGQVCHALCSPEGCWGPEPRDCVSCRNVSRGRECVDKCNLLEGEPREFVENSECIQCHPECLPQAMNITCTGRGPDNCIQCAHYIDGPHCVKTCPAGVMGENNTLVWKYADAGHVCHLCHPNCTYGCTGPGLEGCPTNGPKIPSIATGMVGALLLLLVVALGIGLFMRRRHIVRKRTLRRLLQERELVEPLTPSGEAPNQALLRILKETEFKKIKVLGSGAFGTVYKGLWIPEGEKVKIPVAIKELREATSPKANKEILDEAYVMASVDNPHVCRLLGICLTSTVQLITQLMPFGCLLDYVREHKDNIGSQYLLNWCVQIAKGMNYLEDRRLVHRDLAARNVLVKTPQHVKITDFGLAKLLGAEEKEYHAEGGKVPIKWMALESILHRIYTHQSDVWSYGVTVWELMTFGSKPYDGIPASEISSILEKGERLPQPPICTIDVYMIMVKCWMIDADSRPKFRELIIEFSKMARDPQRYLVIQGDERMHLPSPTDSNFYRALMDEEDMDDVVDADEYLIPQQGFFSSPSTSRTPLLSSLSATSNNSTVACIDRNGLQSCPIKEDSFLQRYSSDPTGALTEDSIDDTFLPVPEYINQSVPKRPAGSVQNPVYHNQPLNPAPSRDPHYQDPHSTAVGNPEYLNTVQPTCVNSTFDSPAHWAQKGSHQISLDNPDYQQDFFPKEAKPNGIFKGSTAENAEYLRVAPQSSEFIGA

| Percent inhibition | SMILES |
| --- | --- |
| < 30% | CC(C)c1ccc(Nc2nnc(-c3c(NCc4ccncc4)ncn3C)o2)cc1 |
| < 30% | Cn1cnc(NCc2ccc(F)c(F)c2)c1-c1nnc(Nc2ccc(Cl)cc2)o1 |
| < 30% | Cn1cnc(NCc2ccncc2)c1-c1nnc(Nc2ccc(OC(F)(F)Cl)cc2)o1 |

target: Fibroblast growth factor receptor 1 (Homo sapiens) (UniProt P11362); experiment: Percent inhibition against FGFR1 at 10 uM by HTRF method; set-up: scale not given: the % may be the effect or the level left

| Activity | SMILES |
| --- | --- |
| < 30% | CC(C)c1ccc(Nc2nnc(-c3c(NCc4ccncc4)ncn3C)o2)cc1 |
| < 30% | Cn1cnc(NCc2ccc(F)c(F)c2)c1-c1nnc(Nc2ccc(Cl)cc2)o1 |
| < 30% | Cn1cnc(NCc2ccncc2)c1-c1nnc(Nc2ccc(OC(F)(F)Cl)cc2)o1 |

target: Cyclin-dependent kinase 5 (Homo sapiens) (UniProt Q00535); experiment: […] against Cdk5 at 10 uM by HTRF method

| Activity | SMILES |
| --- | --- |
| < 30% | CC(C)c1ccc(Nc2nnc(-c3c(NCc4ccncc4)ncn3C)o2)cc1 |
| < 30% | Cn1cnc(NCc2ccc(F)c(F)c2)c1-c1nnc(Nc2ccc(Cl)cc2)o1 |
| < 30% | Cn1cnc(NCc2ccncc2)c1-c1nnc(Nc2ccc(OC(F)(F)Cl)cc2)o1 |

target: Glycogen synthase kinase-3 beta (Homo sapiens) (UniProt P49841); experiment: Inhibition against GSK3-beta at 10 uM by HTRF method; set-up: scale not given: the % may be the effect or the level left

| Activity | SMILES |
| --- | --- |
| < 30% | CC(C)c1ccc(Nc2nnc(-c3c(NCc4ccncc4)ncn3C)o2)cc1 |
| < 30% | Cn1cnc(NCc2ccc(F)c(F)c2)c1-c1nnc(Nc2ccc(Cl)cc2)o1 |
| < 30% | Cn1cnc(NCc2ccncc2)c1-c1nnc(Nc2ccc(OC(F)(F)Cl)cc2)o1 |

target: cAMP-dependent protein kinase (PKA) (Homo sapiens) (UniProt P22694+P17612+P22612); experiment: Inhibition against PKA at 10 uM by HTRF method; type: protein assay; set-up: scale not given: the % may be the effect or the level left

| Activity | SMILES |
| --- | --- |
| < 30% | CC(C)c1ccc(Nc2nnc(-c3c(NCc4ccncc4)ncn3C)o2)cc1 |
| < 30% | Cn1cnc(NCc2ccc(F)c(F)c2)c1-c1nnc(Nc2ccc(Cl)cc2)o1 |
| < 30% | Cn1cnc(NCc2ccncc2)c1-c1nnc(Nc2ccc(OC(F)(F)Cl)cc2)o1 |

target: Bcr/Abl fusion protein (Homo sapiens) (UniProt P00519+P11274); experiment: Inhibition of bcr-Abl at 10 uM by HTRF method; type: protein assay; set-up: scale not given: the % may be the effect or the level left

| Activity | SMILES |
| --- | --- |
| < 30% | CC(C)c1ccc(Nc2nnc(-c3c(NCc4ccncc4)ncn3C)o2)cc1 |
| < 30% | Cn1cnc(NCc2ccc(F)c(F)c2)c1-c1nnc(Nc2ccc(Cl)cc2)o1 |
| < 30% | Cn1cnc(NCc2ccncc2)c1-c1nnc(Nc2ccc(OC(F)(F)Cl)cc2)o1 |

target: Cyclin-dependent kinase 2 (Homo sapiens) (UniProt P24941); experiment: […] against Cdk2 at 10 uM by HTRF method

| Percent inhibition | SMILES |
| --- | --- |
| < 30% | CC(C)c1ccc(Nc2nnc(-c3c(NCc4ccncc4)ncn3C)o2)cc1 |
| < 30% | Cn1cnc(NCc2ccc(F)c(F)c2)c1-c1nnc(Nc2ccc(Cl)cc2)o1 |
| < 30% | Cn1cnc(NCc2ccncc2)c1-c1nnc(Nc2ccc(OC(F)(F)Cl)cc2)o1 |

target: Receptor-type tyrosine-protein kinase FLT3 (Homo sapiens) (UniProt P36888); experiment: Inhibition of Flt3 at 10 uM by HTRF method; set-up: scale not given: the % may be the effect or the level left
Sequence (P36888 whole entry): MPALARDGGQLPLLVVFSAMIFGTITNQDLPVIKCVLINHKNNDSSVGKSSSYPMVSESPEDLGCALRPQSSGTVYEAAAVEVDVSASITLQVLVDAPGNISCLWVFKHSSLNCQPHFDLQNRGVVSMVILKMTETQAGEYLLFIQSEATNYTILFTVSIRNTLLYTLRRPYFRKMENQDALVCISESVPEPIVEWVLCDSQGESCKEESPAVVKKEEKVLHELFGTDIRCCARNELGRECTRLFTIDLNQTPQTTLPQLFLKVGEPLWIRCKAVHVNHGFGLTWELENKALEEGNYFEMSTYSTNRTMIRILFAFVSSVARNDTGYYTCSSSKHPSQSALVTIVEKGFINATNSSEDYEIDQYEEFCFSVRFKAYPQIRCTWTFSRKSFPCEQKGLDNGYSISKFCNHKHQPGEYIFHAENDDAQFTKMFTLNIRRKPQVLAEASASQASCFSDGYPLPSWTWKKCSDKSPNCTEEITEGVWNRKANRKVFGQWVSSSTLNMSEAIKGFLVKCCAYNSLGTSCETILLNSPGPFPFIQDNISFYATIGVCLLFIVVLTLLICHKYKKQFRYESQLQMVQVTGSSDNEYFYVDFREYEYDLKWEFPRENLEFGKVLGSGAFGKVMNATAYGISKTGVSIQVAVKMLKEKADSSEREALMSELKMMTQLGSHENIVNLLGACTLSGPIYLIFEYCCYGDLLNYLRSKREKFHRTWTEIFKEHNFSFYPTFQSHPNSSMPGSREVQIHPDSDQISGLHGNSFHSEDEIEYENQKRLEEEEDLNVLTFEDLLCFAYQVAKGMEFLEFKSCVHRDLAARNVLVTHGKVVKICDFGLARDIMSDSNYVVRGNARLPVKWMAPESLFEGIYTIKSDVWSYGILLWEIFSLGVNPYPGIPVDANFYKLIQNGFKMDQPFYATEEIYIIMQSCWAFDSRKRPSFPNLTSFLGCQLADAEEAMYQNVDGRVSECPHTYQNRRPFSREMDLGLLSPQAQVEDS

| Activity | SMILES |
| --- | --- |
| < 30% | CC(C)c1ccc(Nc2nnc(-c3c(NCc4ccncc4)ncn3C)o2)cc1 |
| < 30% | Cn1cnc(NCc2ccc(F)c(F)c2)c1-c1nnc(Nc2ccc(Cl)cc2)o1 |
| < 30% | Cn1cnc(NCc2ccncc2)c1-c1nnc(Nc2ccc(OC(F)(F)Cl)cc2)o1 |

target: T2, Vascular endothelial growth factor receptor 2; experiment: Inhibition of VEGFR2 by enzymatic assay

| pIC50 | SMILES |
| --- | --- |
| 6.36 | CC(C)c1ccc(Nc2nnc(-c3c(NCc4ccncc4)ncn3C)o2)cc1 |
| 5.73 | Cn1cnc(NCc2ccc(F)c(F)c2)c1-c1nnc(Nc2ccc(Cl)cc2)o1 |
| 6.89 | Cn1cnc(NCc2ccncc2)c1-c1nnc(Nc2ccc(OC(F)(F)Cl)cc2)o1 |

target: Insulin-like growth factor 1 receptor (Homo sapiens) (UniProt P08069); experiment: […] against IGF1R at 10 uM by HTRF method

| Activity | SMILES |
| --- | --- |
| < 30% | CC(C)c1ccc(Nc2nnc(-c3c(NCc4ccncc4)ncn3C)o2)cc1 |
| < 30% | Cn1cnc(NCc2ccc(F)c(F)c2)c1-c1nnc(Nc2ccc(Cl)cc2)o1 |
| < 30% | Cn1cnc(NCc2ccncc2)c1-c1nnc(Nc2ccc(OC(F)(F)Cl)cc2)o1 |
